Experiments:
[1] = test system: WT cell line SK-BR-3; assay: Phospho-AKT (Ser473) Inhibition Assay (HTRF), SK-BR-3; type: cell-based; details: Homo sapiens; SK-BR-3, 1 hour treatment; read-out: p-AKT Inhibition assay (S473) IC50 SK-BR-3
Procedure, shortened: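 SK-BR-3 (PI3Kα WT) cells seeded overnight in MEM with insulin, then treated 1 h with 11-point 1:3 dilutions (10 μM to 0.1 nM, 0.1% DMSO). Lysates read for phospho-AKT Ser473 by HTRF after 4 h antibody incubation at room temperature. IC50 from 4-parameter fit, % inhibition normalized to DMSO (max) and 10 μM GDC0077 (min).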

[2] = test system: PI3Kα H1047R mutated cell line T-47D cells; assay: Cell Proliferation Assay (CellTiter-Glo), T-47D; type: cell-based; details: for IC50: Homo sapiens, T47D, 72 h, T-47D, 3 days treatment; for Selectivity: SK-BR-3/T-47D (cell proliferation): cell proliferation IC50 ratio
Procedure, shortened: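 T-47D cells seeded overnight at 3×10^3/well, then exposed 3 days to 9-point 1:3 dilutions, final […] to 1 nM in 0.1% DMSO. CellTiter-Glo luminescence; relative IC50 from percent inhibition versus medium-only and 0.1% DMSO controls, 4-parameter logistic fit.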

[3] = test system: WT cell line SK-BR-3; assay: Cell Proliferation Assay (CellTiter-Glo), SK-BR-3; type: cell-based; details: Homo sapiens, 72 h; SK-BR-3, 3 days treatment
Procedure, shortened: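 SK-BR-3 cells treated for 3 days with compound in a 9-point series, final concentrations 10 M to 1 nM in 0.1% DMSO. Viability read by CellTiter-Glo luminescence. Relative IC50 from percent inhibition versus medium-only and DMSO controls, four-parameter logistic fit.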

[4] = molecular target: PI3Kα (p110[H1047R]/p85) kinase (Homo sapiens, UniProt P42336, H1047R); assay: PI3Kα (p110[H1047R]/p85) kinase ADP-Glo Assay; type: biochemical; details: 25 uM ATP; for selectivity: WT/H1047R: ADP-Glo Assay IC50 ratio
Sequence of PI3Kα (p110[H1047R]/p85) kinase (P42336 whole entry H1047R): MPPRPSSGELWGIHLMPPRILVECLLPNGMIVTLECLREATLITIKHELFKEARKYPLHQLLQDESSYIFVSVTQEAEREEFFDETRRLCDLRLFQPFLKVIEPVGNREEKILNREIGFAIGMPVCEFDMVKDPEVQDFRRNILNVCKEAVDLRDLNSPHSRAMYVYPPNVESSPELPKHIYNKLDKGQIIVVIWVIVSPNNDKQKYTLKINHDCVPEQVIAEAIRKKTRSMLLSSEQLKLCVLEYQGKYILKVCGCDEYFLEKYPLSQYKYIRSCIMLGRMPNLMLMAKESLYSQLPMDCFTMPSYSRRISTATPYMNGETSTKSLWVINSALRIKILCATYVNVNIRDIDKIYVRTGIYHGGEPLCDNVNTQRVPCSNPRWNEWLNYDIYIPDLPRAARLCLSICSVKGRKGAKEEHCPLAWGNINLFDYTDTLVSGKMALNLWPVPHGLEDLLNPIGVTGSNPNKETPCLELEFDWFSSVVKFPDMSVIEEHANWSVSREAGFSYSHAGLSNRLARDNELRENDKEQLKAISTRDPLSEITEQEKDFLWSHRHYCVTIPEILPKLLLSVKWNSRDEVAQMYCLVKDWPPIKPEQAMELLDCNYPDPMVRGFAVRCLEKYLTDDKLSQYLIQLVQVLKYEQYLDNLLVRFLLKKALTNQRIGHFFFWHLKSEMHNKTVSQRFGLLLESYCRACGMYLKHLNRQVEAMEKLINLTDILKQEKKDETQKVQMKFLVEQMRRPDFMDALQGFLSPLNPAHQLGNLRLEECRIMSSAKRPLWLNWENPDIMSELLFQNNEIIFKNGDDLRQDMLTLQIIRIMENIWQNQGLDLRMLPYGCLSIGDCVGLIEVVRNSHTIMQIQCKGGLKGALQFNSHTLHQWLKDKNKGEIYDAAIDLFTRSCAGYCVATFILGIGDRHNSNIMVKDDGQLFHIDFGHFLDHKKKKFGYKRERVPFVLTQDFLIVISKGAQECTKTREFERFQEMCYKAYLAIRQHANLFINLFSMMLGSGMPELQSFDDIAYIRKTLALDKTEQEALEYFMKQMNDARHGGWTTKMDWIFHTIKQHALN
Sequence of PI3Kα (p110[H1047R]/p85) kinase (P27986 whole entry partner): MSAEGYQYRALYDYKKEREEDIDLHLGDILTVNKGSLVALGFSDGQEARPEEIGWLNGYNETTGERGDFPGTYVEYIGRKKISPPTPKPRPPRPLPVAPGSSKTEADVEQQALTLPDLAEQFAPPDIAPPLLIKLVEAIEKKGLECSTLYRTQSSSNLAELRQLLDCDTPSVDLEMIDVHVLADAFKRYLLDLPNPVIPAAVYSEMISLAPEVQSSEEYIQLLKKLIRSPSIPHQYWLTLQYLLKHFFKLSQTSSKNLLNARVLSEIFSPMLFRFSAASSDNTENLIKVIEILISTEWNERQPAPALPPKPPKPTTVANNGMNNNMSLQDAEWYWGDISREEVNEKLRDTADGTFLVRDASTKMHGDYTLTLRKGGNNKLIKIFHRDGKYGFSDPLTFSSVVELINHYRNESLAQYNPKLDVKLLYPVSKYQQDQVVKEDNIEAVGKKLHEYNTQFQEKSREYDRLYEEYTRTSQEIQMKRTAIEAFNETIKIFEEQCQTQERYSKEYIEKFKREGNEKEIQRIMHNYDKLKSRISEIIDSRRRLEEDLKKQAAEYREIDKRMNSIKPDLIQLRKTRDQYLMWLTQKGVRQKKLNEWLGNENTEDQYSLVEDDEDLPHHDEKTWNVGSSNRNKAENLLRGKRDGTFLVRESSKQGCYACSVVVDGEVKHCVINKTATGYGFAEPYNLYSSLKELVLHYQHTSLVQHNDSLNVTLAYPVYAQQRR
Procedure, shortened: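 ADP-Glo luminescence tracked ADP formed by the mutant p110α(H1047R)/p85 complex during a 120 min room-temperature reaction with 25 µM ATP and 5.35 µg/ml PI(4,5)P2:PS lipid substrate, started after 30 min enzyme–compound–substrate pre-incubation (compound […], 50 mM HEPES pH 7.5). IC50 via four-parameter logistic equation.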

SMILES: Cc1cc(C(C)Nc2ccccc2C(=O)O)c2cc(-c3cnn(C)c3)n(C)c(=O)c2c1 (centres unmarked) [Example 91, 2-((1-(2,7-dimethyl-3-(1-methyl-1H-pyrazol-4-yl)-1-oxo-1,2-dihydroisoquinolin-5-yl)ethyl)amino)benzoic acid]
- IC50 [1]: 4730 nM
- IC50 [2]: 287 nM
- Selectivity: SK-BR-3/T-47D (cell proliferation) [2]: >35
- IC50 [3]: > 10000 nM
- IC50 [4]: 240 nM
- selectivity: WT/H1047R [4]: 40.9

SMILES: Cc1cc(C(C)Nc2sc3ccccc3c2C(=O)O)c2cc(-c3ccccc3)n(C)c(=O)c2c1 (centres unmarked) [Example 92, 2-((1-(2,7-dimethyl-1-oxo-3-phenyl-1,2-dihydroisoquinolin-5-yl)ethyl)amino)benzo[b]thiophene-3-carboxylic acid]
- IC50 [1]: > 10000 nM
- IC50 [2]: > 10000 nM
- IC50 [3]: > 10000 nM
- IC50 [4]: 887 nM
- selectivity: WT/H1047R [4]: >113

SMILES: Cc1cc(C(C)Nc2ccccc2C(=O)O)c2cc(-c3ccc(C#N)cc3)n(C)c(=O)c2c1 (centres unmarked) [Example 4, 2-((1-(3-(4-cyanophenyl)-2,7-dimethyl-1-oxo-1,2-dihydroisoquinolin-5-yl)ethyl)amino)benzoic acid]
- IC50 [1]: > 10000 nM
- IC50 [2]: 112 nM
- Selectivity: SK-BR-3/T-47D (cell proliferation) [2]: >89
- IC50 [3]: > 10000 nM
- IC50 [4]: 443 nM
- selectivity: WT/H1047R [4]: 8.7

— US20260125346A1, “Isoquinolinone Derivatives and 4H-Quinolizinone Derivatives and Pharmaceutical Compositions Thereof for the Treatment of Disease” (BeOne Medicines I GmbH, priority 2023, published 2026)
